In PMC7407834, “Development of an LDL Receptor-Targeted Peptide Susceptible to Facilitate the Brain Access of Diagnostic or Therapeutic Agents” (Biology, 2020):

Legend:
[1] = test system: HUVEC, HepaRG, ACBRI376 and 1321N1 cells; experiment: Endocytosis of rhodamine-coupled peptides, fluorescence microscopy (RRFL); type: cell-based, human; details: all studied cell models, p < 0.001 in HepaRG, p < 0.05 in HUVEC
Procedure: Cells were seeded onto coverslips coated with collagen (0.2 mg/mL, Sigma-Aldrich, Overijse, Belgium) at a density of 8 × 10^5 cells/well and grown for 3 days.
Cells were incubated for 2 h at 37 °C in the dark with LRPep1-rho or LRPep2-rho (peptides coupled to rhodamine, 200 µM in culture medium for HepaRG and HUVEC, 25 µM for ACBRI376 and 1321N1); the negative control was incubated with culture medium. The use of the rhodamine as a fluorescent probe was based on our previous experience with labeled peptides. Cells were rinsed two times with PBS (per liter: 8 g NaCl, 0.2 g KCl, 2.31 g Na2HPO4 × 12 H2O, 0.2 g KH2PO4, pH 7.4). […]
Fluorescence was observed using a Leica DM2000 microscope equipped with a light source EL 6000 and a DFC 425C camera (Leica Microsystems, Groot Bijgaarden, Belgium).
Figure 4 Endocytosis of the peptides LRPep1-rho and LRPep2-rho (stained in red) in (A) HUVEC and HepaRG cells and (B) ACBRI376 and 1321N1 cells. […] (C–F) The endocytosis of peptides, as well as the expression of LDLR, was semi-quantitatively evaluated by the measurement of fluorescent labeling using the ImageJ software and was normalized to the number of cells and to the background, giving the relative ratio of fluorescent labeling (RRFL); *: p < 0.05, **: p < 0.001. […]

ACBRI376 cells = experiment: Colocalization of LRPep2 with caveolae and lysosomes, ACBRI376; type: cell-based, human
Procedure: (§1) Cells were first incubated with LRPep2-rho, as described above (cf. 2.4. Evaluation of the endocytosis potential of peptides LRPep1 and LRPep2), before being permeabilized with methanol. Then, cells were blocked with PBS supplemented with 5% NGS and 0.3% Triton X-100. Caveolae and lysosomes were detected using anti-caveolin 1 and anti-LAMP1 (Lysosomal-Associated Membrane Protein 1) antibodies, respectively, made in rabbit (both from Santa Cruz, Heidelberg, Germany) and incubated overnight at 4 µg/mL in PBS. Finally, cells were incubated for 1 h with an anti-rabbit IgG made in goat coupled to fluorescein (Vector Labconsult) at 20 µg/mL in phosphate buffer pH 7.8 supplemented with 0.5% BSA. Cells were mounted with Vectashield mounting medium with DAPI.

HepaRG cells = experiment: Colocalization of LRPep2 with caveolae and lysosomes, HepaRG; type: cell-based; details: p < 0.001
Procedure: as §1

N18(H) cells = experiment: Colocalization of LRPep2 with caveolae and lysosomes, N18(H); type: cell-based; details: differentiated N18(H) cells
Procedure: Experiments on N18(H) cells were performed after differentiation. Cells were immobilized on the appropriate support, and the differentiation was induced the second day, using medium containing 0.2% FBS for 48 h.
as §1

1321N1 cells = experiment: Colocalization of LRPep2 with caveolae and lysosomes, 1321N1; type: cell-based
Procedure: as §1

Sequence: HPWCCGLRLDLR [LRPep2]
- Endocytosis of the peptide compared with the other peptide [1]: more effective than that of peptide LRPep1
- Endocytosis pathway (ACBRI376 cells; ACBRI376, caveolin-1 fluorescence increased (p < 0.05), LAMP1 decreased (p < 0.05)): endocytosed by the non-degradation pathway involving caveolae
- Mander's coefficient (M), colocalization of rhodamine with caveolin-1 (ACBRI376 cells; ACBRI376 cells, LRPep2-rho 25 µM, 2 h 37 °C, Figure S4): 82.7%
- Endocytosis pathway (HepaRG cells): significant increase of fluorescence was observed for lysosomes
- Endocytosis pathway (N18(H) cells): both pathways
- Endocytosis pathway (1321N1 cells): both pathways
